Results published in PMC5358388 (Proceedings of the National Academy of Sciences of the …, 2017).
Like-named read-outs stand apart in the source and are kept apart here.

Legend:
[1] = test system: P. falciparum; assay: Growth inhibition of P. falciparum lines by chloroquine; type: cell-based; details: Plasmodium falciparum
[2] = test system: cytosolic labile heme in P. falciparum; type: cell-based, Plasmodium falciparum

| Structure (SMILES) | IC50 ([1]; read-out: chloroquine IC50 (95% CI), parasites expressing CH49Y) [nM] | IC50 ([1]; read-out: chloroquine IC50 (95% CI), parental NF54attB line) [nM] | average Δ[heme], increase in labile heme concentration vs untreated control ([2]; 60 nM chloroquine, four independent experiments, P = 0.002) | lower bound on labile cytosolic heme level ([2]; 60 nM chloroquine, assuming no chloroquine in the cytosol) [µM] | upper bound on labile cytosolic heme level ([2]; 60 nM chloroquine, assuming ≥1:1 chloroquine:heme in the cytosol) [µM] | change in labile heme concentration, treated vs untreated parasites ([2]; pyrimethamine 125 and 500 nM, 32 h) |
| --- | --- | --- | --- | --- | --- | --- |
| CCN(CC)CCCC(C)Nc1ccnc2cc(Cl)ccc12 (stereo not drawn) [chloroquine] | 10.3 to 11.3 | 8.2 to 9.7 | +0.86 µM | ~2.8 | ~7 | – |
| CCc1nc(N)nc(N)c1-c1ccc(Cl)cc1 [pyrimethamine] | – | – | – | – | – | No increase in labile heme concentration |
